In ChEMBL document CHEMBL1201862, “PubChem BioAssay data set” (2004):
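All cell lines were grown in 96-well plates and treated with compound for 48 hours. Abbreviation: GI50, concentration required for 50% inhibition of growth.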 Activity calls are given as the source filed them. No stated cut-off is given here; in the data, active = GI50 up to about 1.1 µM and inactive = higher.

Columns and labels:
Experiment in all cases: NCI tumour cell line growth inhibition, 48 h
[1] = tested on: BT-549
[2] = tested on: COLO 205
[3] = tested on: DU-145
[4] = tested on: HCC 2998
[5] = tested on: HL-60
[6] = tested on: HOP-62
[7] = tested on: M14
[8] = tested on: MCF7
[9] = tested on: MDA-MB-231
[10] = tested on: MDA-MB-435
[11] = tested on: MDA-N
[12] = tested on: Malme-3M
[13] = tested on: NCI-H226
[14] = tested on: OVCAR-8
[15] = tested on: PC-3
[16] = tested on: SF-268
[17] = tested on: SF-539
[18] = tested on: SN12C
[19] = tested on: UO-31
[20] = tested on: RXF 393

| SMILES | GI50 [1] | GI50 [2] | GI50 [3] | GI50 [4] | GI50 [5] | GI50 [6] | GI50 [7] | GI50 [8] | GI50 [9] | GI50 [10] | GI50 [11] | GI50 [12] | GI50 [13] | GI50 [14] | GI50 [15] | GI50 [16] | GI50 [17] | GI50 [18] | GI50 [19] | GI50 [20] |
| --- | --- | --- | --- | --- | --- | --- | --- | --- | --- | --- | --- | --- | --- | --- | --- | --- | --- | --- | --- | --- |
| C=CC1ON(Cc2ccccc2)CCc2cc(OC)c(OC)cc21 (stereo not given) | 28.1 µM (inactive) | 41.6 µM (inactive) | > 100 µM (inactive) | 35.5 µM (inactive) | 26.1 µM (inactive) | 85.5 µM (inactive) | 49.7 µM (inactive) | > 100 µM (inactive) | 81.1 µM (inactive) | 24.5 µM (inactive) | 29 µM (inactive) | 19.2 µM (inactive) | > 100 µM (inactive) | > 100 µM (inactive) | 48.9 µM (inactive) | 46.6 µM (inactive) | 83.4 µM (inactive) | 77.4 µM (inactive) | 25.5 µM (inactive) | – |
| N[C@@H]1CCN(c2c(F)cc3c(=O)c(C(=O)O)cn4c3c2Oc2cc3c(ccc5ccccc53)cc2-4)C1 | 4.03 µM (inactive) | 4.45 µM (inactive) | 3.28 µM (inactive) | – | 7.14 µM (inactive) | 4.82 µM (inactive) | 8.79 µM (inactive) | 3.13 µM (inactive) | 4.56 µM (inactive) | 3.24 µM (inactive) | 3.01 µM (inactive) | 5.27 µM (inactive) | 6.58 µM (inactive) | 1.7 µM (inactive) | 2.34 µM (inactive) | – | 3.37 µM (inactive) | 2.08 µM (inactive) | 5.2 µM (inactive) | 1.64 µM (inactive) |
| CCc1cc(O)c(Cl)c(C)c1Cl | 17.5 µM (inactive) | 21.4 µM (inactive) | 16.7 µM (inactive) | 15.2 µM (inactive) | 33.7 µM (inactive) | 18.7 µM (inactive) | 18.6 µM (inactive) | 23.2 µM (inactive) | 27 µM (inactive) | 16.4 µM (inactive) | 16.3 µM (inactive) | 19.4 µM (inactive) | – | 18.2 µM (inactive) | 19.5 µM (inactive) | 20.9 µM (inactive) | 18.2 µM (inactive) | 15.6 µM (inactive) | 19.1 µM (inactive) | 14.1 µM (inactive) |
| COC(=O)c1ccc(Nc2nc3[nH]cnc3c(=O)[nH]2)cc1 | > 100 µM (inactive) | > 100 µM (inactive) | > 100 µM (inactive) | > 100 µM (inactive) | > 100 µM (inactive) | > 100 µM (inactive) | 59.2 µM (inactive) | > 100 µM (inactive) | > 100 µM (inactive) | 51.9 µM (inactive) | 32.9 µM (inactive) | > 100 µM (inactive) | > 100 µM (inactive) | > 100 µM (inactive) | > 100 µM (inactive) | 94 µM (inactive) | 67.3 µM (inactive) | > 100 µM (inactive) | – | – |
| CC1(O)CC(C(F)(F)F)(C(F)(F)F)OC1=O (stereo not given) | > 10 µM (inactive) | > 10 µM (inactive) | > 10 µM (inactive) | > 10 µM (inactive) | – | > 10 µM (inactive) | > 10 µM (inactive) | > 10 µM (inactive) | > 10 µM (inactive) | > 10 µM (inactive) | > 10 µM (inactive) | > 10 µM (inactive) | > 10 µM (inactive) | > 10 µM (inactive) | > 10 µM (inactive) | > 10 µM (inactive) | > 10 µM (inactive) | > 10 µM (inactive) | > 10 µM (inactive) | – |
| CCCCC1C=Cn2c(=O)oc3c(OC(C)C)c(C)c(O)c1c32 (stereo not given) | 2.17 µM (inactive) | 3.01 µM (inactive) | 0.652 µM (active) | 2.96 µM (inactive) | 0.46 µM (active) | 0.0497 µM (active) | 1.19 µM (inactive) | 0.509 µM (active) | 1.87 µM (inactive) | 1.33 µM (inactive) | 2.37 µM (inactive) | 1.47 µM (inactive) | 1.63 µM (inactive) | 1.73 µM (inactive) | 2.43 µM (inactive) | 0.796 µM (active) | 2.49 µM (inactive) | 1.37 µM (inactive) | 0.71 µM (active) | – |
| O=C1C(c2c(O)[nH]c3ccc(Br)cc23)=Nc2ccc(Br)cc21 | 70.6 µM (inactive) | > 100 µM (inactive) | 25.4 µM (inactive) | > 100 µM (inactive) | 86.5 µM (inactive) | 42.1 µM (inactive) | 97.9 µM (inactive) | 13.6 µM (inactive) | 20 µM (inactive) | 40.7 µM (inactive) | 31.2 µM (inactive) | 46 µM (inactive) | > 100 µM (inactive) | 27.1 µM (inactive) | 51.3 µM (inactive) | 33 µM (inactive) | – | 45.2 µM (inactive) | > 100 µM (inactive) | 16.6 µM (inactive) |
